Results published in ChEMBL document CHEMBL1201862, “PubChem BioAssay data set” (2004).
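Test compounds were applied to cells in 96-well plates for 48 hours at 5 doses. GI50 marks 50% less growth.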 Active and inactive are the calls of the source. No stated cut-off is given here; in the data, active = GI50 up to about 1.1 µM and inactive = higher.

Columns and labels:
Test in all cases: inhibition of tumour cell growth, NCI panel, 48 h
LOX IMVI = system: LOX IMVI
EKVX = system: EKVX
CAKI-1 = system: CAKI-1
OVCAR-5 = system: OVCAR-5
SK-MEL-5 = system: SK-MEL-5
SF-295 = system: SF-295
TK-10 = system: TK-10
PC-3 = system: PC-3
NCI-H226 = system: NCI-H226
OVCAR-8 = system: OVCAR-8
OVCAR-3 = system: OVCAR-3
UACC-62 = system: UACC-62
MDA-MB-435 = system: MDA-MB-435
SK-MEL-2 = system: SK-MEL-2
SK-MEL-28 = system: SK-MEL-28
ACHN = system: ACHN
OVCAR-4 = system: OVCAR-4
KM12 = system: KM12
SK-OV-3 = system: SK-OV-3
NCI-H23 = system: NCI-H23
DU-145 = system: DU-145
HT-29 = system: HT-29
SF-268 = system: SF-268
UACC-257 = system: UACC-257
U-251 = system: U-251
A549 = system: A549
M14 = system: M14
IGROV-1 = system: IGROV-1
786-0 = system: 786-0
HL-60 = system: HL-60
SN12C = system: SN12C
HOP-62 = system: HOP-62
MOLT-4 = system: MOLT-4
HCT-15 = system: HCT-15
RXF 393 = system: RXF 393
NCI-H460 = system: NCI-H460
NCI/ADR-RES = system: NCI/ADR-RES
COLO 205 = system: COLO 205
HCT-116 = system: HCT-116
CCRF-CEM = system: CCRF-CEM
UO-31 = system: UO-31
HOP-92 = system: HOP-92
MDA-MB-231 = system: MDA-MB-231
Hs-578T = system: Hs-578T
HCC 2998 = system: HCC 2998
SNB-19 = system: SNB-19
SW-620 = system: SW-620
BT-549 = system: BT-549
NCI-H522 = system: NCI-H522
SF-539 = system: SF-539
SNB-75 = system: SNB-75
MCF7 = system: MCF7
A498 = system: A498

NC(=S)N/N=C(\Cc1nc2ccc(Cl)cc2nc1O)C(=O)Nc1ccc(Cl)cc1
GI50 (LOX IMVI): > 100 µM (inactive)
GI50 (EKVX): 76 µM (inactive)
GI50 (CAKI-1): > 100 µM (inactive)
GI50 (OVCAR-5): > 100 µM (inactive)
GI50 (SK-MEL-5): > 100 µM (inactive)
GI50 (SF-295): > 100 µM (inactive)
GI50 (TK-10): > 100 µM (inactive)
GI50 (PC-3): > 100 µM (inactive)
GI50 (NCI-H226): 96.2 µM (inactive)
GI50 (OVCAR-8): > 100 µM (inactive)
GI50 (OVCAR-3): > 100 µM (inactive)
GI50 (UACC-62): > 100 µM (inactive)
GI50 (MDA-MB-435): > 100 µM (inactive)
GI50 (SK-MEL-2): > 100 µM (inactive)
GI50 (SK-MEL-28): > 100 µM (inactive)
GI50 (ACHN): > 100 µM (inactive)
GI50 (OVCAR-4): > 100 µM (inactive)
GI50 (KM12): > 100 µM (inactive)
GI50 (SK-OV-3): > 100 µM (inactive)
GI50 (NCI-H23): > 100 µM (inactive)
GI50 (DU-145): > 100 µM (inactive)
GI50 (HT-29): > 100 µM (inactive)
GI50 (SF-268): > 100 µM (inactive)
GI50 (UACC-257): > 100 µM (inactive)
GI50 (U-251): > 100 µM (inactive)
GI50 (A549): > 100 µM (inactive)
GI50 (M14): > 100 µM (inactive)
GI50 (IGROV-1): > 100 µM (inactive)
GI50 (786-0): > 100 µM (inactive)
GI50 (HL-60): > 100 µM (inactive)
GI50 (SN12C): > 100 µM (inactive)
GI50 (HOP-62): > 100 µM (inactive)
GI50 (MOLT-4): > 100 µM (inactive)
GI50 (HCT-15): > 100 µM
GI50 (RXF 393): > 100 µM (inactive)
GI50 (NCI-H460): > 100 µM (inactive)
GI50 (NCI/ADR-RES): > 100 µM (inactive)
GI50 (COLO 205): > 100 µM (inactive)
GI50 (HCT-116): > 100 µM (inactive)
GI50 (CCRF-CEM): > 100 µM (inactive)
GI50 (UO-31): 40 µM (inactive)
GI50 (HOP-92): 40.3 µM (inactive)
GI50 (MDA-MB-231): > 100 µM (inactive)
GI50 (Hs-578T): > 100 µM (inactive)
GI50 (HCC 2998): > 100 µM (inactive)
GI50 (SNB-19): > 100 µM (inactive)
GI50 (SW-620): > 100 µM (inactive)
GI50 (BT-549): > 100 µM (inactive)
GI50 (NCI-H522): > 100 µM (inactive)
GI50 (SF-539): > 100 µM (inactive)
GI50 (SNB-75): > 100 µM (inactive)
GI50 (MCF7): > 100 µM (inactive)

O=C1C(O)=C(Cc2ccccc2)C(=O)c2ccccc21
GI50 (EKVX): 55.1 µM (inactive)
GI50 (OVCAR-5): > 100 µM (inactive)
GI50 (SK-MEL-5): 18.7 µM (inactive)
GI50 (SF-295): 45.3 µM (inactive)
GI50 (TK-10): > 100 µM (inactive)
GI50 (PC-3): 54.5 µM (inactive)
GI50 (OVCAR-3): 27.7 µM (inactive)
GI50 (SK-MEL-2): 42 µM (inactive)
GI50 (SK-MEL-28): 42.3 µM (inactive)
GI50 (OVCAR-4): 46.6 µM (inactive)
GI50 (SK-OV-3): 63.5 µM (inactive)
GI50 (NCI-H23): 49.1 µM (inactive)
GI50 (HT-29): 48.9 µM (inactive)
GI50 (A498): 51.6 µM (inactive)
GI50 (UACC-257): 46.8 µM (inactive)
GI50 (M14): 34.8 µM (inactive)
GI50 (786-0): 61.7 µM (inactive)
GI50 (HCT-15): 35.6 µM
GI50 (NCI/ADR-RES): 49.5 µM (inactive)
GI50 (HCT-116): 50.6 µM (inactive)
GI50 (UO-31): 41.6 µM (inactive)
GI50 (MDA-MB-231): 91.2 µM (inactive)
GI50 (Hs-578T): 37.3 µM (inactive)
GI50 (HCC 2998): 83.2 µM (inactive)
GI50 (BT-549): 70.8 µM (inactive)
